The source of these data is article PMC5618656, “Interference of Paraben Compounds with Estrogen Metabolism by Inhibition of 17β-Hydroxysteroid Dehydrogenases” (International Journal of Molecular Sciences, 2017).

Broadly, the inhibition is the relative decrease from the control value, in per cent. A lower inhibition goes with a response near the control. In general, IC50 refers to the concentration needed to halve the response being measured.

Like-named read-outs stand apart in the source and are kept apart here.

The target in test [1] is T1, 17β-hydroxysteroid dehydrogenase 2 (17β-HSD2) (Homo sapiens, UniProt P37059).
T1 construct: gene HSD17B2
T1 sequence (P37059 1-387): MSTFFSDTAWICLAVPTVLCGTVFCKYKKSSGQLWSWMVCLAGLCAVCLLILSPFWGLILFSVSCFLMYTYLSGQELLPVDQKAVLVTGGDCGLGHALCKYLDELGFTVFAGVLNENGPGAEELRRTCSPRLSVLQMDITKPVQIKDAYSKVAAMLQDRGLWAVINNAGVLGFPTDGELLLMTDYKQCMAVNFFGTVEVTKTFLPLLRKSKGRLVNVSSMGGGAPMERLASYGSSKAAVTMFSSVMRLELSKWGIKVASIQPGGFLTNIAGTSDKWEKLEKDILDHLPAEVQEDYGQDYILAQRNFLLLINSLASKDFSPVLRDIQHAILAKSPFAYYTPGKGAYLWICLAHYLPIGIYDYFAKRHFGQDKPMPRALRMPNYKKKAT
The experiment in a line: biochemical. More on the design: species or system HEK-293 (transiently transfected); Radiolabeled estradiol to estrone conversion (200 nM, NAD+) in lysates of 17β-HSD2-transfected cells; TLC and scintillation counting. As to the method: Lysate activity assays were performed as previously described. Briefly, HEK-293 cells (ATCC) were transiently transfected with expression constructs for human 17β-HSD1 or 17β-HSD2 using the calcium phosphate precipitation method. Lysates of HEK-293 cells expressing 17β-HSD1 or 17β-HSD2 were incubated at 37 °C for 10 min in TS2 buffer (100 mM NaCl, 1 mM EDTA, 1 mM EGTA, 250 mM sucrose, 1 mM MgCl2, 20 mM Tris-HCl, pH 7.4), containing either the inhibitor at the respective concentration or solvent (0.2% DMSO). 17β-HSD1 activity was determined in the presence of 200 nM estrone, including 50 nCi of [2,4,6,7-^3H]-estrone and 500 μM NADPH. Whereas, the 17β-HSD2 activity was performed in the presence of 200 nM estrone, including 50 nCi of [2,4,6,7-^3H]-estradiol and 500 μM NAD+.  Figure 4 (A) Inhibition of estrone formation by parabens in human embryonic kidney (HEK-293) cell lysates expressing human 17β-HSD2. The conversion of estradiol to estrone was measured in lysates of HEK-293 cells transiently transfected with 17β-HSD2 in the presence of 200 nM radiolabeled estradiol and parabens or paraben-like compounds at a final concentration of 20 µM. 17β-HSD2 inhibitor BM13 served as positive control (compound 22 in [18]). Statistical analyses were performed using one-way analysis of variance (ANOVA) test followed by a Dunnett post-hoc test. […] (B) Concentration-dependent inhibition of 17β-HSD2 by ethylparaben and ethyl vanillate. Results represent the mean ± standard deviation (SD) of three independent measurements. To determine 17β-HSD1 activity in COV434 cells, cells were seeded (50,000) into 96-well plates and incubated for 90 min with 200 nM estrone, including 50 nCi of [2,4,6,7-^3H]-estrone in serum-free charcoal treated media containing either the inhibitor at the respective concentration or solvent (0.1% DMSO). Both activity essays were stopped by adding a 1:1 ratio of 2 mM unlabeled estrone and estradiol in methanol. Radiolabeled steroids were obtained from Perkin-Elmer (Boston, MA, USA) whereas normal steroids and cofactors were purchased from Sigma-Aldrich. Estrogens were separated by thin layer chromatography and samples were analyzed using scintillation counting. All data were collected from at least three independent measurements.

Test [2] concerns the target T2, 17β-hydroxysteroid dehydrogenase 1 (17β-HSD1) (Homo sapiens, UniProt P14061).
T2 construct: gene HSD17B1
T2 sequence (P14061 2-328): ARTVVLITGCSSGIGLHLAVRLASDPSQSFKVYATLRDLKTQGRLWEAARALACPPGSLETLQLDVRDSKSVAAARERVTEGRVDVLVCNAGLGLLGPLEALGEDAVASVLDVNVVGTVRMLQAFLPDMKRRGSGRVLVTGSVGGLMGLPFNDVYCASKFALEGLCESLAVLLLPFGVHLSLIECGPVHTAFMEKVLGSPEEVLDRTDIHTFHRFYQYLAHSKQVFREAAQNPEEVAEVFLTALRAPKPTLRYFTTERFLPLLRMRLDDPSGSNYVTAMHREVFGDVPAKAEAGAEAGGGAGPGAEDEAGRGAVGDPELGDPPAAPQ
Briefly: biochemical. More on the design: species or system HEK-293 (transiently transfected); Radiolabeled estrone to estradiol conversion (200 nM, NADPH) in lysates of 17β-HSD1-transfected cells; TLC and scintillation counting. As to the method:
Lysate activity assays were performed as previously described. Briefly, HEK-293 cells (ATCC) were transiently transfected with expression constructs for human 17β-HSD1 or 17β-HSD2 using the calcium phosphate precipitation method. Lysates of HEK-293 cells expressing 17β-HSD1 or 17β-HSD2 were incubated at 37 °C for 10 min in TS2 buffer (100 mM NaCl, 1 mM EDTA, 1 mM EGTA, 250 mM sucrose, 1 mM MgCl2, 20 mM Tris-HCl, pH 7.4), containing either the inhibitor at the respective concentration or solvent (0.2% DMSO). 17β-HSD1 activity was determined in the presence of 200 nM estrone, including 50 nCi of [2,4,6,7-^3H]-estrone and 500 μM NADPH. Whereas, the 17β-HSD2 activity was performed in the presence of 200 nM estrone, including 50 nCi of [2,4,6,7-^3H]-estradiol and 500 μM NAD+.  Figure 6 (A) Inhibition of 17β-HSD1 activity by parabens. 17β-HSD1 activity was measured in lysates of transiently-transfected HEK-293 cells, using DMSO as a negative, and apigenin as a positive, control. Statistical analyses were performed using one-way ANOVA followed by a Dunnett post-hoc test. […] (B) Concentration-dependent inhibition of 17β-HSD1 by [compound left out]- and heptylparaben. The conversion of estrone to estradiol was measured in lysates of HEK-293 cells transfected with 17β-HSD1 and (C) in intact human COV434 granulosa cells endogenously expressing 17β-HSD1. Results represent the mean ± SD of three independent experiments. To determine 17β-HSD1 activity in COV434 cells, cells were seeded (50,000) into 96-well plates and incubated for 90 min with 200 nM estrone, including 50 nCi of [2,4,6,7-^3H]-estrone in serum-free charcoal treated media containing either the inhibitor at the respective concentration or solvent (0.1% DMSO). Both activity essays were stopped by adding a 1:1 ratio of 2 mM unlabeled estrone and estradiol in methanol. Radiolabeled steroids were obtained from Perkin-Elmer (Boston, MA, USA) whereas normal steroids and cofactors were purchased from Sigma-Aldrich. Estrogens were separated by thin layer chromatography and samples were analyzed using scintillation counting. All data were collected from at least three independent measurements.

Test [3] deals with T1, 17β-hydroxysteroid dehydrogenase 2 (17β-HSD2). Briefly: radiolabeled estradiol to estrone conversion in lysates of HEK-293 cells transfected with human […]β-HSD2. The format is biochemical.
The target is the same in test [4]. Briefly: radiolabeled estradiol conversion in lysates of transfected HEK-293 cells, single concentration […]. The format is cell-based. The note with it: HEK293.
The target in test [5] is T2, 17β-hydroxysteroid dehydrogenase 1 (17β-HSD1). Briefly: radiolabeled estrone to estradiol conversion in lysates of transfected HEK-293 cells; also intact COV434 cells (IC50 […]). Format: biochemical.
Test [6] has the same target. Briefly: radiolabeled estrone conversion in lysates of transfected HEK-293 cells, single concentration […]. Format: cell-based. The note with it: HEK293.
The target of test [7] is T1, 17β-hydroxysteroid dehydrogenase 2 (17β-HSD2). The experiment in a line: radiolabeled estradiol conversion in lysates of transfected HEK-293 cells at […]; also significant at […]. The note with it: HEK293. Format: cell-based.
Test [8] deals with T2, 17β-hydroxysteroid dehydrogenase 1 (17β-HSD1). Briefly: radiolabeled estrone to estradiol conversion in lysates of transfected HEK-293 cells; also intact COV434 cells (IC50 […]). The format is biochemical. This is another data set of the same source.

As for `CC(C)OC(=O)c1ccc(O)cc1` [isopropylparaben], the inhibition at 20 µM in test [1] came out at 60 ± 1%; in test [2], 32 ± 9%.
In the same order, the values of `O=C(O)c1ccc(O)cc1` [p-hydroxybenzoic acid] are 0% and 7 ± 11%.
`CCOC(=O)c1ccc(O)cc1` [2-P, ethylparaben]: in test [3], the IC50 came to 4.6 µM. In addition, the inhibition at 20 µM in test [1] was 74 ± 4%; in test [2] it was 7 ± 6%.
In the case of `CCCCOC(=O)c1ccc(O)cc1` [butylparaben], the inhibition at 20 µM in test [1] was 30 ± 7%; in test [2], 52 ± 10%.
As to `O=C(Oc1ccccc1)c1ccc(O)cc1` [phenylparaben], the inhibition at 20 µM amounted to 64% in test [4] and 35 ± 1% in test [2].
Take `CCCOC(=O)c1ccc(O)cc1` [propylparaben]: the inhibition at 20 µM turned out to be 37 ± 6% in test [1] and 37 ± 5% in test [2].
In the case of `COC(=O)c1ccc(O)cc1` [methylparaben], the inhibition at 20 µM came out at 50 ± 6% in test [1] and 0% in test [2].
Consider `CCCCCCCOC(=O)c1ccc(O)cc1` [heptylparaben], for which the inhibition at 20 µM came to 76% in test [4] and 83 ± 6% in test [2]. Further, the IC50 in test [5] is 1.8 µM.
Take `CC(C)COC(=O)c1ccc(O)cc1` [isobutylparaben]: the inhibition at 20 µM in test [6] came out at 65%; in test [1] it was 53 ± 7%.
Consider `CCOC(=O)c1ccc(O)c(OC)c1` [ethyl vanillate], for which half-maximal inhibition in test [3] (IC50) required 1.3 µM. This lies in the single-digit micromolar range.
On to `CCCCCCOC(=O)c1ccc(O)cc1` [6-P, hexylparaben], for which the inhibition at 20 µM in test [7] stood at 58%; in test [2], 80 ± 5%. In addition, the IC50 in test [8] turned out to be 2.6 µM.
Take `O=C(OCc1ccccc1)c1ccc(O)cc1` [benzylparaben]: the results for the inhibition at 20 µM in test [4] and in test [6] were 64% and 67%, respectively.
